Structures are written as SMILES. Activity calls are given as the source filed them.

In test [1] the target is Dual specificity protein kinase CLK3 (Homo sapiens, UniProt P49761). The test is classed as subcellular, K-562, COLO 205, SK-N-BE(2) and MV-4-11, Cell lysate. The following applies: read-out: Kd apparent.
Test [2] deals with Cell division cycle 7-related protein kinase (Homo sapiens, UniProt O00311).
For test [3], the target named is Epidermal growth factor receptor (Homo sapiens, UniProt P00533).
Test [4] addresses T1, Receptor-type tyrosine-protein kinase FLT3 (Homo sapiens, UniProt P36888).
T1 sequence (P36888 whole entry): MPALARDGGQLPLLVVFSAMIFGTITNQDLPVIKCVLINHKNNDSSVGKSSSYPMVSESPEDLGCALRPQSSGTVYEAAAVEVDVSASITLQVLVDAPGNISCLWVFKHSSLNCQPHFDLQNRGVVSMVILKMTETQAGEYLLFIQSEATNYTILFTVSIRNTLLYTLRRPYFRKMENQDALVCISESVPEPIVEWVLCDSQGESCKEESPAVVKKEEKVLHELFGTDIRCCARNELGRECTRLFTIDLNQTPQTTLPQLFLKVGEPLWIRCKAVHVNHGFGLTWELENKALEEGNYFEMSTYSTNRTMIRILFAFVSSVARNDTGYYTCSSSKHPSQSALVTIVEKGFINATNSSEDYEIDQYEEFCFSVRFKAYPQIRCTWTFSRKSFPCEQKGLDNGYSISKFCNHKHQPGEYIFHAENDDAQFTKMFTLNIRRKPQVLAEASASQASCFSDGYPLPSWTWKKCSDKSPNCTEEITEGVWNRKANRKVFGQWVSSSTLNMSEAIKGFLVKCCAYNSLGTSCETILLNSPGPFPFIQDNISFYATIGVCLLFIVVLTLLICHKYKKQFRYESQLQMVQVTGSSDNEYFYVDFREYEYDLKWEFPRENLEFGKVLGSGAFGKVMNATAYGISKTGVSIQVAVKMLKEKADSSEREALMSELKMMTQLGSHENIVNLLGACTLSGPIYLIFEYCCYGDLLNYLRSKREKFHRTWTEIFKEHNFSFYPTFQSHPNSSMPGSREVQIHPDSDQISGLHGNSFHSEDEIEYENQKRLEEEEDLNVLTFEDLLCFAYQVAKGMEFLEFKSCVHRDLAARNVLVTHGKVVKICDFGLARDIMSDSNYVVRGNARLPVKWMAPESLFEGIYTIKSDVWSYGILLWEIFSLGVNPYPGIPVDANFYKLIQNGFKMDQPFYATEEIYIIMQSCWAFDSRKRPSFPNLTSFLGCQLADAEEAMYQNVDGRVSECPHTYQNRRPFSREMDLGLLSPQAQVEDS

For test [5], the target named is Glycogen synthase kinase-3 beta (Homo sapiens, UniProt P49841).
Test [6] addresses Mitogen-activated protein kinase 14 (Homo sapiens, UniProt Q16539).
The target of test [7] is MAP kinase-activated protein kinase 3 (Homo sapiens, UniProt Q16644).
The target of test [8] is High affinity nerve growth factor receptor (Homo sapiens, UniProt P04629).
Test [9] addresses PAS domain-containing serine/threonine-protein kinase (Homo sapiens, UniProt Q96RG2).
Test [10] addresses Phosphatidylethanolamine-binding protein 1 (Homo sapiens, UniProt P30086).
Test [11] has as its target Membrane-associated progesterone receptor component 1 (Homo sapiens, UniProt O00264).
Test [12] deals with Serine/threonine-protein kinase pim-2 (Homo sapiens, UniProt Q9P1W9).
The target of test [13] is Serine/threonine-protein kinase N3 (Homo sapiens, UniProt Q6P5Z2).
For a further test, the target named is Focal adhesion kinase 1 (Homo sapiens, UniProt Q05397).
Test [14] concerns the target Proto-oncogene tyrosine-protein kinase receptor Ret (Homo sapiens, UniProt P07949).
In test [15] the target is Dual specificity testis-specific protein kinase 1 (Homo sapiens, UniProt Q15569).
Test [16] concerns the target T2, Thyroid hormone receptor-associated protein 3 (Homo sapiens, UniProt Q9Y2W1).
T2 sequence (Q9Y2W1 whole entry): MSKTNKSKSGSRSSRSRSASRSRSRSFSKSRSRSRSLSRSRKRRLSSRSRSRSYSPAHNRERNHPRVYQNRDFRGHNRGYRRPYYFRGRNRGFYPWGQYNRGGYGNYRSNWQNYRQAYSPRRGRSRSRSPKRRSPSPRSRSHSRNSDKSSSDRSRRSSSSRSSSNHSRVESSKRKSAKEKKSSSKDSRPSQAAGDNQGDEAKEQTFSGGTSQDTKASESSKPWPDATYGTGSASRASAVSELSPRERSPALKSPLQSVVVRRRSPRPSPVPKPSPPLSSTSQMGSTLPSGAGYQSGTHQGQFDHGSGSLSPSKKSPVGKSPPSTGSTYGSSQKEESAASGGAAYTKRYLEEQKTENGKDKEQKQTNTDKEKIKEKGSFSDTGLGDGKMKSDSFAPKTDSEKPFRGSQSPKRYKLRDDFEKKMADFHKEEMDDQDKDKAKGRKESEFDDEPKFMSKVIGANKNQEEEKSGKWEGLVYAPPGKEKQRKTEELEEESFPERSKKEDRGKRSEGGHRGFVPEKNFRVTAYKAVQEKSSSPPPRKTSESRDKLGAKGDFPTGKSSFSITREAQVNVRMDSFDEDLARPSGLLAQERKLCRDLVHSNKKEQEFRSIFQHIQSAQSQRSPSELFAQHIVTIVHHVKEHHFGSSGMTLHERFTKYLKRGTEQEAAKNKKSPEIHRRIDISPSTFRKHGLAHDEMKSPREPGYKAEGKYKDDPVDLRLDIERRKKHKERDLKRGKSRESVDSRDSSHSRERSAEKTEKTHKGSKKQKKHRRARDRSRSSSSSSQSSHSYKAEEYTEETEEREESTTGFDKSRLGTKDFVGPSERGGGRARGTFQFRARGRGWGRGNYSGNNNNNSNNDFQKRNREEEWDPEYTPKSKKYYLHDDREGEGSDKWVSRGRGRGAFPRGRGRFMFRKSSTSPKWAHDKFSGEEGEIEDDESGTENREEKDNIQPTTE

Test [17] deals with DNA topoisomerase 2-alpha (Homo sapiens, UniProt P11388).
Also: in the data inactive means no Kd found up to 30 µM.

Chain of Mitogen-activated protein kinase 14 (Q16539 whole entry): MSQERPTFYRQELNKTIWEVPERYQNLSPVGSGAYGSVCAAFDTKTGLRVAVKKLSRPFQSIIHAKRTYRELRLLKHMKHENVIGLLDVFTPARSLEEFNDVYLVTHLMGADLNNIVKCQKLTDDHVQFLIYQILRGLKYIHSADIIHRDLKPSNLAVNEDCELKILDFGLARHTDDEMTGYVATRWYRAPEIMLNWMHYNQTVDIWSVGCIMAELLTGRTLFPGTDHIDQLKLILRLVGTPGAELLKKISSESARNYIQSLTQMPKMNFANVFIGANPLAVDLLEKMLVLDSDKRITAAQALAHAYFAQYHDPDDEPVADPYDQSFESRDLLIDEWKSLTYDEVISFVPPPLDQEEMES
Chain of Cell division cycle 7-related protein kinase (O00311 whole entry): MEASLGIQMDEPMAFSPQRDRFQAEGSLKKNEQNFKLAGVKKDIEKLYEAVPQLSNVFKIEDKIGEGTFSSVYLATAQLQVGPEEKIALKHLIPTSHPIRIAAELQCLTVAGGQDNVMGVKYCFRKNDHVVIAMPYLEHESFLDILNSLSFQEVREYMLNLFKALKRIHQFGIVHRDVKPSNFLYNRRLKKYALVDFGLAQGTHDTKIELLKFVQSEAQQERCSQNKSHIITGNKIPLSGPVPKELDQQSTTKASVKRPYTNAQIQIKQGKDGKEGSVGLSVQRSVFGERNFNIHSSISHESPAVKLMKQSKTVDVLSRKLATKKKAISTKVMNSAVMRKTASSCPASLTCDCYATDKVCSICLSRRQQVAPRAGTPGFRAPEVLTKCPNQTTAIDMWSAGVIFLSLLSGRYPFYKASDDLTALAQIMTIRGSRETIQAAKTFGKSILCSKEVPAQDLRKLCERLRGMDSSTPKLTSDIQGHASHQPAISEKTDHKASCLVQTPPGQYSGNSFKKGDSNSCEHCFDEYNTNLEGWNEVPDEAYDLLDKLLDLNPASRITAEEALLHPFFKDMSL
Chain of Phosphatidylethanolamine-binding protein 1 (P30086 whole entry): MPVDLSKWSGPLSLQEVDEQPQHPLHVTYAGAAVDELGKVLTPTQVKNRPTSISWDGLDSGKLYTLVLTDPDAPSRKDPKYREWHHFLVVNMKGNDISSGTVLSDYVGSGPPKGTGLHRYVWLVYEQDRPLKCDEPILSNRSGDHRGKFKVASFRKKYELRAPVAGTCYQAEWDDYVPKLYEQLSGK
Chain of Dual specificity testis-specific protein kinase 1 (Q15569 whole entry): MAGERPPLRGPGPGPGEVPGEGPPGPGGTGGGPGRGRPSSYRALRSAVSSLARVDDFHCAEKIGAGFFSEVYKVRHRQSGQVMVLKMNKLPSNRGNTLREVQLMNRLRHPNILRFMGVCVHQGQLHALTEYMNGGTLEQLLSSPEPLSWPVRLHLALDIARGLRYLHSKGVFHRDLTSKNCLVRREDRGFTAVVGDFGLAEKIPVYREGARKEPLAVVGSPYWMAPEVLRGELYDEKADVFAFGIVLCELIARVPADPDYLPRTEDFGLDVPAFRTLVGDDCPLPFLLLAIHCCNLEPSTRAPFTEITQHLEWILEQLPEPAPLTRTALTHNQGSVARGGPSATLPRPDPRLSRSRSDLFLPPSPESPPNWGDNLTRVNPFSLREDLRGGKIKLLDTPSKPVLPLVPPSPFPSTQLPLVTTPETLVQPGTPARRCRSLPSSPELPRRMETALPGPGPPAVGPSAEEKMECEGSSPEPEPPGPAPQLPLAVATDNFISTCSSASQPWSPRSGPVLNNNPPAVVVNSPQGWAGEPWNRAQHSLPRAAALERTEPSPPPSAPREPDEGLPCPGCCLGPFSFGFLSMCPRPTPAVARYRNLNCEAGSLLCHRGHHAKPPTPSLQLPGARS
Chain of MAP kinase-activated protein kinase 3 (Q16644 whole entry): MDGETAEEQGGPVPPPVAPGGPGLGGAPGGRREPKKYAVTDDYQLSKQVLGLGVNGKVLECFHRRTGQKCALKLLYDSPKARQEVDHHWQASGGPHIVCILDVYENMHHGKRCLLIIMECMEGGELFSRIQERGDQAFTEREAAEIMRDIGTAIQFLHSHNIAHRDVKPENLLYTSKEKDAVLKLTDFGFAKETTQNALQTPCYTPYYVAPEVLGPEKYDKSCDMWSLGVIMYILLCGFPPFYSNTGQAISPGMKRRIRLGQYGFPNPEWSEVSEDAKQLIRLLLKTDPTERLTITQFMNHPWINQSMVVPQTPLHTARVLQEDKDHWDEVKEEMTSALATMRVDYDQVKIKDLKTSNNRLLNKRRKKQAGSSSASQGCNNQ
Chain of Focal adhesion kinase 1 (Q05397 whole entry): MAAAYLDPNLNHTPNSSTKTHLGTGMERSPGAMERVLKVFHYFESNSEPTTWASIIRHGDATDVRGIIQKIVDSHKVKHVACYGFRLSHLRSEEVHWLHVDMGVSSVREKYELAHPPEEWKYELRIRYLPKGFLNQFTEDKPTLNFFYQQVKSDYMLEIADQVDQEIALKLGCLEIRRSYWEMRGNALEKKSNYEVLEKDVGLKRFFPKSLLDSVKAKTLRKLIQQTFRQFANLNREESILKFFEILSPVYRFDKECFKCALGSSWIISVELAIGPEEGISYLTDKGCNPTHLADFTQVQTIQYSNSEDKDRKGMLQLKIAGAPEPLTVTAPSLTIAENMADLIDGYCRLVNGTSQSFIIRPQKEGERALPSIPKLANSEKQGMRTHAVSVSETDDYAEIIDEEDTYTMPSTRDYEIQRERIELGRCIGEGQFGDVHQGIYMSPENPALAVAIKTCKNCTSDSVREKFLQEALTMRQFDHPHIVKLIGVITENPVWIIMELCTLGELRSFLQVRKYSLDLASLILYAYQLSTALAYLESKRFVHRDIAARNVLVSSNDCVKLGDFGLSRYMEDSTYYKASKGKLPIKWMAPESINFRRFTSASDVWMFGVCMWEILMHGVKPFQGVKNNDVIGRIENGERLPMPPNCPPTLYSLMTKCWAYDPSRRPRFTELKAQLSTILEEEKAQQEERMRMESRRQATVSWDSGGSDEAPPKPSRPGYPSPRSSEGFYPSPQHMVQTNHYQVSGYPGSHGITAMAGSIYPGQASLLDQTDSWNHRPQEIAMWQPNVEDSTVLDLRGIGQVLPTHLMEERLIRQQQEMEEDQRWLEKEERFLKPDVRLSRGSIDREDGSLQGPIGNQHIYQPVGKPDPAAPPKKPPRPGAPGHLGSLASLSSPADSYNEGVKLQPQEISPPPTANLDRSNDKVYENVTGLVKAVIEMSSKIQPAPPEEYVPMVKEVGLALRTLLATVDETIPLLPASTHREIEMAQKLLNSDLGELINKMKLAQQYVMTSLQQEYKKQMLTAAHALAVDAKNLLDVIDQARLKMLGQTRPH
Chain of Serine/threonine-protein kinase pim-2 (Q9P1W9 whole entry): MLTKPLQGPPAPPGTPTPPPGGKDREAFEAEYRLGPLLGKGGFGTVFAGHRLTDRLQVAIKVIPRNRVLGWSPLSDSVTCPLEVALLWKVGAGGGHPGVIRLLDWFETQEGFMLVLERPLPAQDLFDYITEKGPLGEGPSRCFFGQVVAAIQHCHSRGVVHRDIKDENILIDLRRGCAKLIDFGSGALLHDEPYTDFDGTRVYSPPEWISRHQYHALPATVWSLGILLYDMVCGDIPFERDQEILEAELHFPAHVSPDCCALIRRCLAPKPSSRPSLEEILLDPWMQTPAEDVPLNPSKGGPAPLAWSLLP
Chain of Serine/threonine-protein kinase N3 (Q6P5Z2 whole entry): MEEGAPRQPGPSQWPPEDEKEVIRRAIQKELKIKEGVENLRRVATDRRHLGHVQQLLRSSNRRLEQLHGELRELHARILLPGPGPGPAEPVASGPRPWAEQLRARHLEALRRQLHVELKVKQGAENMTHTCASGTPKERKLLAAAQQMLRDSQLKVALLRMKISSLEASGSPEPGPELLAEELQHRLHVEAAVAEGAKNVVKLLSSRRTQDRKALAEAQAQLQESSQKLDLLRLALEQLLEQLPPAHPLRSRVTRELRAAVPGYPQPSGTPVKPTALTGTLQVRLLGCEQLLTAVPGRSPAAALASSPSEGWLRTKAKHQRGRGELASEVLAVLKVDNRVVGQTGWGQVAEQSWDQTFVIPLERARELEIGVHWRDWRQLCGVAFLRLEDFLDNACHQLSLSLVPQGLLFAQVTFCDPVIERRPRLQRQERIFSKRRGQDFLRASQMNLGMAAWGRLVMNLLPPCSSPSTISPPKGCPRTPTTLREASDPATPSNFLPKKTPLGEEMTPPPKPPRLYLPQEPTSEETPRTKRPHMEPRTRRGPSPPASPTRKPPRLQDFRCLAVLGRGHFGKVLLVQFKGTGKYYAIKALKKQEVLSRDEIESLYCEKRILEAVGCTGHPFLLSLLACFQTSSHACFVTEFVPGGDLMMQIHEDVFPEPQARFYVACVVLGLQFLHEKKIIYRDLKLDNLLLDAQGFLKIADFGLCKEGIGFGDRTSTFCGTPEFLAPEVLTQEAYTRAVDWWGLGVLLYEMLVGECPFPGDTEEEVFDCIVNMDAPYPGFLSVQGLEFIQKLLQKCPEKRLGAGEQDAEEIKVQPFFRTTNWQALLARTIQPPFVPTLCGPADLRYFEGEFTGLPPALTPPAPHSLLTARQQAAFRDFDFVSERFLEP
Chain of Membrane-associated progesterone receptor component 1 (O00264 whole entry): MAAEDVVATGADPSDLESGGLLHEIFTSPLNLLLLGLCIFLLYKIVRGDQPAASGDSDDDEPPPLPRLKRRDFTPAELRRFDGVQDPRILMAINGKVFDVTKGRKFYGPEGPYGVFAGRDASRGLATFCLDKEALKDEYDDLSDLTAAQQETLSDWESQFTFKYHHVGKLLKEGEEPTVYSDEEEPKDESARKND
Chain of Glycogen synthase kinase-3 beta (P49841 whole entry): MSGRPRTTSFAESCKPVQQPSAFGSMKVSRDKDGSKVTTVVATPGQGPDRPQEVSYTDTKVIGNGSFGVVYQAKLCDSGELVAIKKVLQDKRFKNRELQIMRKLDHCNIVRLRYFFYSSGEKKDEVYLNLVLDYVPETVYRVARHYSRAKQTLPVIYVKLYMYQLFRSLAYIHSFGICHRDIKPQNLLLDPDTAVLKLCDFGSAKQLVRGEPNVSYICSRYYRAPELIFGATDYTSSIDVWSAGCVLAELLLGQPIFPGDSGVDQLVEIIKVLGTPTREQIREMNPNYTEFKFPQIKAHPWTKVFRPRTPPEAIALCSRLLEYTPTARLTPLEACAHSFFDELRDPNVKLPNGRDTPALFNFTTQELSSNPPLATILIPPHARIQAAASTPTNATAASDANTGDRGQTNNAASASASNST

On to `C#Cc1cccc(Nc2ncnc3cc4c(cc23)OCCOCCOCCO4)c1` [ICOTINIB], for which the Kd was > 30 µM (inactive) in test [1]; > 30 µM (inactive) in test [2]; 10.1 µM (active) in [3]; > 30 µM (inactive) in test [4]; > 30 µM (inactive) in test [5]; > 30 µM (inactive) in [6]. The Kd in test [7], in test [8], in [9], in [10], in test [11] and in test [12] was > 30 µM (inactive) throughout. The Kd (in [13]; on Focal adhesion kinase 1; in [14]; in test [15]; in test [16]; in [17]) was > 30 µM (inactive) each time.

As to `Cc1cc(Nc2nc(N[C@@H](C)c3ncc(F)cn3)ncc2Cl)n[nH]1` [AZD-1480], the Kd in test [1] was > 30 µM (inactive); in [2], > 30 µM (inactive); in test [3], > 30 µM (inactive); in [4], 1.68 µM (active); in [5] it was > 30 µM (inactive); in test [6], > 30 µM (inactive). The Kd in test [7], in test [8], in [9], in test [10], in [11] and in test [12] was > 30 µM (inactive) each time. Also, the Kd is > 30 µM (inactive) in [13]; 0.191 µM (active) on Focal adhesion kinase 1; 0.238 µM (active) in test [14]; > 30 µM (inactive) in [15]; > 30 µM (inactive) in [16]; > 30 µM (inactive) in test [17].

For `Cc1ccc(C(=O)Nc2ccc(Oc3cc4cnn(C)c4cc3-c3cn[nH]c3)c(F)c2)c(=O)n1-c1ccc(F)cc1` [MERESTINIB], the Kd is > 30 µM (inactive) in [1]; > 30 µM (inactive) in test [2]; > 30 µM (inactive) in test [3]; 0.309 µM (active) in test [4]; > 30 µM (inactive) in test [5]; > 30 µM (inactive) in test [6]. The Kd in [7] was > 30 µM (inactive); in test [8], 1.03 µM; in [9] it was > 30 µM (inactive); in test [10], > 30 µM (inactive); in test [11] it was > 30 µM (inactive); in test [12], > 30 µM (inactive). In addition, the Kd in [13] is > 30 µM (inactive); at Focal adhesion kinase 1, > 30 µM (inactive); in test [14], 1.38 µM (active); in [15], > 30 µM (inactive); in [16], > 30 µM (inactive); in test [17], > 30 µM (inactive).

The values above are taken from ChEMBL document CHEMBL3991601, “The target landscape of clinical kinase drugs” (Science, 2017).
